Where two headings read alike, the source gives them in different places.
How the values were obtained:
Type in all cases: in vivo, mouse
[1] = test system: nerve damage model animal; test: Allodynia experiment, nerve damage model (partial sciatic nerve ligation), Von Frey filament method; settings: for anti-allodynia effect in animals with ligated sciatic nerve: s.c. administration, Von Frey filament
Method: Further the anti-nociceptive activity test using a nerve damage model envisioning a neuropathic pain was performed.
Preparation of the Nerve-Damage Model was Conducted According to the model created by Seltzer (partial sciatic nerve ligation: RSL model).
Specifically the amount of 0.1 mL/10 g of Nembutal solution 7 times diluted with Ringer's solution (Fuso Pharmaceutical Kogyo) was injected into the peritoneal cavity of mouse using 26 gauge needle (Termo) to give anesthetic. The animal was lain on its stomach, its femoral skin was cut open to incise through the fascia, the part between the heads of the biceps femoris was cut and then its sciatic nerve was fixed. The ⅓ to ½ part of the […] around the sciatic nerve detached without damaging was completely ligated with a nylon suture thread No. 9 (Natsume Seisakusho) using a vascular needle 000 spring hole (Natsume Seisakusho). Further the cut skin was sutured with the silk thread No. 2 (Natsume Seisakusho) using a surgical needle 1 spring needle (Natsume Seisakusho). After the operation, the mice had been kept until the testing date under the above conditions.
The measurement of allodynia effect on the nerve-damage model animals was conducted according to the Von Frey filament method 7 days after the nerve ligation.
Then a few kinds of filaments having different strength of stimulus (Touch-test Sensory Evaluator Instruction North Coast Medical Inc.) were pushed perpendicularly on the sole of the hinder leg until the filament was bent.
Further, for comparison, the left lower leg of the animal without nerve-damage was also stimulated and the threshold values were measured. AUCs (the area surrounded with the time-reaction curve and the base line of a graph showing the relationship between the time after administration (time-course) and % MPE) were calculated from the obtained results. Antiallodynia activity obtained from the AUC divided by the measuring time was compared as strength of activity per unit of the time period.

inflammatory pain model = test: Rheumatoid arthritis / inflammatory pain model (CFA), Von Frey filament method; settings: for ED50: Mus musculus, po, read-out: ED50 of the anti-nociceptive activity calculated using the unit-time AUC value
Method: Experimental animal, male ddy type mice (Nihon SLC), weighing the body weight in the range of 15 to 20 g, were used for the studies. The animals had been kept under constant conditions (room temperature 23±1° C., humidity 52±2%, 12 hours light-and-dark cycle having light time 7:00 to 19:00 and dark time 19:00 to 7:00) until used for an experiment. The animals were fed the mouse solid diet (F2, Funabashi farm. Funabashi, Japan) with unrestricted tap water intake, and kept in captivity for at least more than two days in a laboratory.
A mouse was firmly fixed without anesthesia and 25 μL of Complete Freund's Adjuvant (CFA) using a number 30 guage needle (Termo) was subcutaneously administered into the dorsum of left hind foot to provide an inflammatory pain model. The model was kept under the conditions noted above until used for the test.
Measurement of anti-nociceptive activity on the inflammatory pain model was conducted according to Von Fray filament method as well as on never damaged model 5 days after CFA administration. The drugs were orally administered.
The anti-nociceptive activity is represented as a unit AUC value (AUC/min) which is the total AUC value or AUC divided by the measurement time and compared to study. ED50 of the anti-nociceptive activity was calculated by reducing the measurement value to a percentage of the upper limit which was set as 2.0 for the unit AUC.

pressure stimulation = test: Tail-pressure test; settings: either oral or subcutaneous administration (FIG. 67, 68)
Method: The maximum pressure was 100 mmHg. The mice used for the experiment reacted to the pressure range between 40 mmHg and 50 mmHg in pre-selective experiment. A few mice or a few dozen of mice under the same condition were stimulated by adding pressure and respective threshold values for the pain reaction were measured in constant intervals after administration in accordance with different drugs administered and the different dosage thereof. According to the measurement value of the pain reaction threshold value, a percent of maximum possible effect, (% of MPE) was calculated using the following formula to quantify the anti-nociceptive activity. % of MPE=[(Pt−P0)/(Pc−Po)]×100 (in the formula, Po is a pain reaction threshold value before drug administration; Pt is a pain reaction threshold value t minute after drug administration; and Pc is a maximum simulative pressure)
The mouse which reacted to 532 through 665 Pa (40-50 mmHg) was reselected for the test. In addition the maximal stimulating pressure was set as 1333 Pa (100 mmHg). Then % MPE at this point was calculated from formula (1) as well as noted above.

CN1CC[C@]23c4c5ccc(O)c4O[C@H]2[C@@H](O)C=C[C@H]3[C@H]1C5 [Morphine]
anti-allodynia effect in animals with ligated sciatic nerve [1]: significantly decreased | ED50 (inflammatory pain model; CFA administered foot): 113 mg/kg | ED50 (inflammatory pain model; CFA non-administered foot): 67.9 mg/kg | lasting time of anti-nociceptive activity (inflammatory pain model; mice, CFA model, oral): 360 min | peak of anti-nociceptive activity after administration (inflammatory pain model; mice, CFA model, oral): 30 min

Iminoethyl-[Tyr]-[D-Met(O)]-[Phe]-[N-MeβAla]-NHCH3 [SS8225-07]
lasting period of anti-nociceptive activity compared with morphine ([1]; nerve damage model, s.c., at dose of equal activity): about twice longer | anti-allodynia effect in animals with ligated sciatic nerve [1]: decrease of anti-allodynia effect was not observed at any doses | dosage providing the same AUC, as part of morphine dosage (pressure stimulation): one hundredth through one twentieth

— patent US20080009448A1, “Peptide Derivative” (priority 2006, published 2008)
